14 compounds from patent US20110159304A1, “ANTI-SULPHATE REDUCING BACTERIA COMPOSITION COMPRISING 1,2-BENZISOTHIAZOL-3(2H)-ONE, IRGASAN, BENZYL-2-BROMOACETATE, 2,2-DIBROMO-2-CYANOACETAMIDE, AND 2-BROMO-2-NITROPROPAN-1,3-DIOL” (KOREA GAS CORPORATION, priority 2009, published 2011) can be followed below.

Like-named read-outs stand apart in the source and are kept apart here.

Common to all, as to type: cell-based
Experiment [1] has as its system Desulfovibrio desulfuricans KCTC 5786. Description: Antibacterial activity test after thermal shock (paper disk clear zone). The settings on record: for clear zone after thermal shock / clear zone before thermal shock: 0.1% condition; for clear zone after thermal shock: after thermal shock (180° C., 1 hr); for antibacterial activity after thermal shock: after 180° C., 1 hour, 0.1%. On the procedure:
(§1) The experiment proceeded with varying the concentration of the compounds used in the experiment to 1.0%, 0.1%, 0.01%, and 0.001%. The 8 mm of a paper disk was placed on the plate prepared by plating the culture, and were inoculated with 50 μl of various concentrations of the compound. After culturing the strain for 24, and 48 hrs at 37° C., the clear zone (mm) representing antibacterial activity was measured and Minimum Inhibitory Concentration (MIC) was determined.
Applying the heat shrinkable sheet using flames of torch, the temperature increased to about 150° C. and the exposure time was around 15 minutes. […] After 1,2-benzisothiazol-3(2H)-one, irgasan, benzyl-2-bromoacetate, 2,2-dibromo-2-cyanoacetamide, and 2-bromo-2-nitropropan-1,3-diol were exposed to higher temperature (180° C.) for a longer time (1 hour), the antibacterial activity was measured at a concentration of 0.1% using the same method as Experiment Example 1 (see, Table 3, FIGS. 3a to 3e).

Experiment [2] shares this test system. Description: Antibacterial activity evaluation, paper disk clear zone and MIC. To be noted: for zone of inhibition at 0.001 % / zone of inhibition at 0.01 % / zone of inhibition at 0.1 % / zone of inhibition at 1 %: Desulfovibrio desulfuricans; for zone of inhibition at 0.001 %: antibacterial agent concentration 0.001%; for antibacterial activity relative to other commercially used antibacterial agents: compared by MIC with 1-hydroxypyridine-2-tionzinc, 2-methyl-isothiazolin-3-one and the like; for MIC minimum inhibitory concentration: paper disk test, concentrations 1.0-0.001%, 37° C. On the procedure:
Desulfovibrio desulfuricans KCTC 5786 was used as a test sulphate reducing bacteria strain.
The all materials used in the test, disk paper, medium and so on, were sterilized for 15 min at 121° C. Bacteria's culture and antibacterial activity test were performed in an anaerobic chamber (Anaerobic System, Form a Sci; condition maintaining not more than 5 ppm of oxygen concentration).
After culturing the test strain for not less than 3 days, the volume of the culture was adjusted to 10^5-7/mL to prepare for plating it on Desulfovibrio medium, and the test compounds were resolved in a suitable solvent for use (ethanol for lipid soluble compounds, and distilled water for water soluble compounds).
as §1

Experiment [3] shares this test system. Description: Antibacterial activity test of antibacterial agent-added coating material (adhesive, primer). On the procedure: as §1
Test equipment and materials, and test condition are as follows: • Coating material type: adhesive (Canusa), primer (Polyken) • Mixed antibacterial agent's concentration: control, 0.5, 1.0, 2.0, 5.0 wt %
As an adhesive specimen, the components were mixed by manual stirring in an oven at 150° C., and then an 1 mm-thick adhesive sheet was fabricated. As a primer specimen, a 0.2 mm-thick sheet having a primer dry film was fabricated. The specimen was diced into a size of 15 mm×15 mm, and after UV sterilization, the antibacterial activity of the specimen was assessed using the same environment and method as in the test method of Experiment Example 1 described above.

Where [4] appears, read: KCTC5786, 8 mm paper disk, 50 μl, — = negative, read-out: CZ (mm) clear zone.
[5] abbreviates: KCTC5786, antibacterial agent concentration 0.01%, 8 mm paper disk, 50 μl, — = negative, read-out: CZ (mm) clear zone.
The mark [6] stands for this setting: KCTC5786, antibacterial agent concentration 0.1%, 8 mm paper disk, 50 μl, — = negative, read-out: CZ (mm) clear zone.
Setting [7] is: KCTC5786, antibacterial agent concentration 1%, 8 mm paper disk, 50 μl, — = negative, read-out: CZ (mm) clear zone.
The mark [8] stands for this setting: adhesive (Canusa) with 0.5 wt % antibacterial agent.
Where [9] appears, read: adhesive (Canusa) with 1.0 wt % antibacterial agent.
The mark [10] stands for this setting: adhesive (Canusa) with 2.0 wt % antibacterial agent.
Where [11] appears, read: adhesive (Canusa) with 5.0 wt % antibacterial agent.
The mark [12] stands for this setting: primer (Polyken) with 1.0 wt % antibacterial agent.
Where [13] appears, read: primer (Polyken) with 2.0 wt % antibacterial agent.
[14] abbreviates: primer (Polyken) with 5.0 wt % antibacterial agent.
Where [15] appears, read: primer (Polyken) with 0.5 wt % antibacterial agent.
Where [16] appears, read: KCTC5786, read-out: CZ (mm) clear zone.
Where [17] appears, read: antibacterial agent concentration 0.1%, 8 mm paper disk, 50 μl, — = negative.
Where [18] appears, read: antibacterial agent concentration 1%, 8 mm paper disk, 50 μl, — = negative.

`O=c1[nH]sc2ccccc12` [1,2-benzisothiazol-3(2H)-one]: the “clear zone after thermal shock” value in experiment [1] was 14.5 mm. The “clear zone before thermal shock” value in experiment [1] is listed as 16 mm. The “antibacterial activity after thermal shock” value in experiment [1] was “maintained the excellent antibacterial activity”. For the same compound, in experiment [2] (setting [4]), the zone of inhibition at 0.001 % came out at 1 mm. Also, in experiment [2] (setting [5]), the zone of inhibition at 0.01 % came to 2.5 mm. Moreover, the zone of inhibition at 0.1 % in experiment [2] (setting [6]) turned out to be 6.5 mm. In addition, the zone of inhibition at 1 % in experiment [2] (setting [7]) was found to be 13.5 mm. For the same compound, the “antibacterial activity relative to other commercially used antibacterial agents” value in experiment [2] came to 10 times. Also, the “Clear zone (mm), adhesive” value is 15 mm in experiment [3] (setting [8]), 18 mm in experiment [3] (setting [9]), 19 mm in experiment [3] (setting [10]) and 25 mm in experiment [3] (setting [11]). Further, the “Clear zone (mm), primer” value in experiment [3] (setting [12]) is 7.5 mm; in experiment [3] (setting [13]) it was 8.5 mm; in experiment [3] (setting [14]), 17.5 mm.
Take `O=[N+]([O-])C(Br)(CO)CO` [2-bromo-2-nitropropan-1,3-diol]: the “clear zone after thermal shock” value in experiment [1] is recorded as 25 mm. The “clear zone before thermal shock” value in experiment [1] came to 20 mm. For the same compound, the “antibacterial activity after thermal shock” value in experiment [1] was “maintained the excellent antibacterial activity”. In addition, the zone of inhibition at 0.01 % in experiment [2] (setting [5]) was determined as 1.5 mm. Further, the zone of inhibition at 0.1 % in experiment [2] (setting [6]) was found to be 8 mm. Besides, in experiment [2] (setting [7]), the zone of inhibition at 1 % is 18.5 mm. Moreover, the “antibacterial activity relative to other commercially used antibacterial agents” value in experiment [2] is given as 10 times. Further, the “Clear zone (mm), adhesive” value in experiment [3] (setting [8]) is 5.5 mm; in experiment [3] (setting [9]) it was 10.5 mm; in experiment [3] (setting [10]), 13 mm; in experiment [3] (setting [11]) it was 14.5 mm. Moreover, the “Clear zone (mm), primer” value amounted to 9 mm in experiment [3] (setting [15]), 9 mm in experiment [3] (setting [12]), 2 mm in experiment [3] (setting [13]) and 16.5 mm in experiment [3] (setting [14]).
For `O=C(CBr)OCc1ccccc1` [Benzyl-2-bromoacetate, benzyl-2-bromoacetate], the “clear zone after thermal shock” value in experiment [1] is on record as 36 mm. In experiment [1], the “clear zone before thermal shock” value is recorded as 39 mm. In addition, the “antibacterial activity after thermal shock” value in experiment [1] is “maintained the excellent antibacterial activity”. In addition, in experiment [2] (setting [4]), the zone of inhibition at 0.001 % is 35 mm. In addition, in experiment [2] (setting [5]), the zone of inhibition at 0.01 % was no less than 39 mm. For the same compound, the zone of inhibition at 0.1 % in experiment [2] (setting [6]) was no less than 39 mm. Besides, the zone of inhibition at 1 % in experiment [2] (setting [7]) is no less than 39 mm. The “antibacterial activity relative to other commercially used antibacterial agents” value in experiment [2] is given as 10 times. Further, the “Clear zone (mm), adhesive” value is 24 mm in experiment [3] (setting [8]), 30 mm in experiment [3] (setting [9]), 34 mm in experiment [3] (setting [10]) and “≧39 mm” in experiment [3] (setting [11]). Also, the “Clear zone (mm), primer” value in experiment [3] (setting [15]) was “≧26 mm”; in experiment [3] (setting [12]), “≧32 mm”; in experiment [3] (setting [13]), “≧34 mm”; in experiment [3] (setting [14]), “≧39 mm”.
On to `Cn1sccc1=O` [2-methyl-4-isothiazoline-3-one, reference compound], for which, in experiment [2] (setting [16]), the zone of inhibition at 0.1 % came to 5 mm and the zone of inhibition at 1 % stood at 12 mm. For the same compound, the “MIC minimum inhibitory concentration” value in experiment [2] is 0.1%.
For the compound `Cc1cc(O)cc(C)c1Cl` [4-chloro-3,5-dimethylphenol, reference compound], in experiment [2] (setting [6]), the zone of inhibition at 0.1 % was 1 mm. In addition, in experiment [2] (setting [7]), the zone of inhibition at 1 % is 16 mm. Besides, the “MIC minimum inhibitory concentration” value in experiment [2] came to 0.1%.
Turning to `Oc1cc(Cl)ccc1Oc1ccc(Cl)cc1Cl` [Irgasan, irgasan], in experiment [1], the “clear zone after thermal shock” value is reported as 13 mm, the “clear zone before thermal shock” value is given as 13 mm and the “antibacterial activity after thermal shock” value was “maintained the excellent antibacterial activity”. Also, in experiment [2] (setting [16]), the zone of inhibition at 0.01 % was determined as 5 mm, the zone of inhibition at 0.1 % is 11 mm and the zone of inhibition at 1 % came out at 14 mm. Besides, in experiment [2], the “antibacterial activity relative to other commercially used antibacterial agents” value amounted to 10 times. In addition, the “Clear zone (mm), primer” value in experiment [3] (setting [15]) turned out to be 3.5 mm. The “Clear zone (mm), primer” value in experiment [3] (setting [12]) turned out to be 1.5 mm. The “Clear zone (mm), primer” value in experiment [3] (setting [13]) was determined as 1.5 mm. For the same compound, the “Clear zone (mm), primer” value in experiment [3] (setting [14]) is on record as 6 mm.
As to `[O-]n1ccccc1=S.[O-]n1ccccc1=S.[Zn+2]` [1-hydroxypyridine-2-thionezinc, reference compound], the “CZ (mm) clear zone” value in experiment [2] (setting [17]) stood at 1 mm; in experiment [2] (setting [18]), 3.5 mm. The “MIC minimum inhibitory concentration” value in experiment [2] is on record as 0.1%.
With `c1ccc2[nH]c(-c3cscn3)nc2c1` [Thiabendazole minimum 99%, Thiabendazole, reference compound], in experiment [2], the “MIC minimum inhibitory concentration” value was no less than 1%.
`N#Cc1c(Cl)c(Cl)c(Cl)c(C#N)c1Cl` [Chlorothalonil, reference compound]: in experiment [2] (setting [6]), the zone of inhibition at 0.1 % came out at 2 mm. Further, the zone of inhibition at 1 % in experiment [2] (setting [7]) worked out at 4 mm. Besides, the “MIC minimum inhibitory concentration” value in experiment [2] was 0.1%.
As for “Molybdenum (VI) oxide [Molybdenum (VI) oxide 99.99%, reference compound]”, the “CZ (mm) clear zone” value in experiment [2] (setting [18]) is reported as 6 mm. The “MIC minimum inhibitory concentration” value in experiment [2] is 1.0%.
Regarding `CCCCNC(=O)OCC#CI` [3-iodo-2-propynyl n-butylcarbamate, 97%, 3-iodo-2-propynyl n-butylcarbamate, reference compound], the zone of inhibition at 0.1 % in experiment [2] (setting [6]) turned out to be 3 mm. In experiment [2] (setting [7]), the zone of inhibition at 1 % was found to be 5.5 mm. Also, the “MIC minimum inhibitory concentration” value in experiment [2] amounted to 0.1%.
Consider `O=C(Nc1ccc(Cl)cc1)Nc1ccc(Cl)c(Cl)c1` [3,4,4-trichloro-Carbanilide, reference compound], for which, in experiment [2], the “MIC minimum inhibitory concentration” value is on record as no less than 1%.
In the case of `N#CC(Br)(Br)C(N)=O` [2,2-dibromo-2-cyanoacetamide], the “clear zone after thermal shock” value in experiment [1] is listed as 18.5 mm. For the same compound, in experiment [1], the “clear zone before thermal shock” value is given as 39.5 mm. Besides, in experiment [1], the “antibacterial activity after thermal shock” value is given as “maintained the excellent antibacterial activity”. Besides, the zone of inhibition at 0.001 % in experiment [2] (setting [4]) was no less than 39 mm. The zone of inhibition at 0.01 % in experiment [2] (setting [5]) was no less than 39 mm. Moreover, in experiment [2] (setting [6]), the zone of inhibition at 0.1 % was no less than 39 mm. Moreover, the zone of inhibition at 1 % in experiment [2] (setting [7]) is no less than 39 mm. The “antibacterial activity relative to other commercially used antibacterial agents” value in experiment [2] turned out to be 10 times. In addition, the “Clear zone (mm), adhesive” value in experiment [3] (setting [8]) is 2 mm; in experiment [3] (setting [9]), 2.5 mm; in experiment [3] (setting [10]), “≧26 mm”; in experiment [3] (setting [11]), “≧30.5 mm”. Also, the figures for the “Clear zone (mm), primer” value in experiment [3] (setting [15]), in experiment [3] (setting [13]) and in experiment [3] (setting [14]) were 1.5 mm, 1 mm and 6.5 mm, respectively.
Consider `O=CCCCC=O` [Glutar-di-aldehyde, 50 wt %, Glutar-di-aldehyde, reference compound], for which the “CZ (mm) clear zone” value in experiment [2] (setting [17]) is given as 6 mm; in experiment [2] (setting [18]) it was 12 mm. Besides, the “MIC minimum inhibitory concentration” value in experiment [2] came out at 0.1%.
